Test results published in patent US10392368B2, “Pyrazolo and triazolo bicyclic compounds as JAK kinase inhibitors” (THERAVANCE BIOPHARMA R&D IP, LLC, priority 2017, dated 2019).
Read-outs that look alike come from different tables or passages of the source.

How the values were obtained:
[1] = target: T1, JAK1 (Homo sapiens, UniProt P23458); assay: Biochemical JAK1 kinase assay (LanthaScreen); conditions: for Ki: read-out: JAK 1 (pKi) (converted)
T1 construct: GST; purchased Life Technologies
Procedure, shortened: (§1)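 Values are pKi, calculated by Cheng-Prusoff from IC50 obtained by robust 4-parameter fitting of percent inhibition. The kinase reaction used GFP-STAT1 peptide in HEPES pH 7.5 buffer with MgCl2, EGTA and Brij-35, ATP-initiated after compound pre-incubation, 1 h at ambient temperature.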

[2] = target: T2, JAK2 (Homo sapiens, UniProt O60674); assay: Biochemical JAK2 kinase assay (LanthaScreen); conditions: for Ki: read-out: JAK 2 (pKi) (converted)
T2 construct: GST; purchased Life Technologies
T2 sequence (O60674 whole entry): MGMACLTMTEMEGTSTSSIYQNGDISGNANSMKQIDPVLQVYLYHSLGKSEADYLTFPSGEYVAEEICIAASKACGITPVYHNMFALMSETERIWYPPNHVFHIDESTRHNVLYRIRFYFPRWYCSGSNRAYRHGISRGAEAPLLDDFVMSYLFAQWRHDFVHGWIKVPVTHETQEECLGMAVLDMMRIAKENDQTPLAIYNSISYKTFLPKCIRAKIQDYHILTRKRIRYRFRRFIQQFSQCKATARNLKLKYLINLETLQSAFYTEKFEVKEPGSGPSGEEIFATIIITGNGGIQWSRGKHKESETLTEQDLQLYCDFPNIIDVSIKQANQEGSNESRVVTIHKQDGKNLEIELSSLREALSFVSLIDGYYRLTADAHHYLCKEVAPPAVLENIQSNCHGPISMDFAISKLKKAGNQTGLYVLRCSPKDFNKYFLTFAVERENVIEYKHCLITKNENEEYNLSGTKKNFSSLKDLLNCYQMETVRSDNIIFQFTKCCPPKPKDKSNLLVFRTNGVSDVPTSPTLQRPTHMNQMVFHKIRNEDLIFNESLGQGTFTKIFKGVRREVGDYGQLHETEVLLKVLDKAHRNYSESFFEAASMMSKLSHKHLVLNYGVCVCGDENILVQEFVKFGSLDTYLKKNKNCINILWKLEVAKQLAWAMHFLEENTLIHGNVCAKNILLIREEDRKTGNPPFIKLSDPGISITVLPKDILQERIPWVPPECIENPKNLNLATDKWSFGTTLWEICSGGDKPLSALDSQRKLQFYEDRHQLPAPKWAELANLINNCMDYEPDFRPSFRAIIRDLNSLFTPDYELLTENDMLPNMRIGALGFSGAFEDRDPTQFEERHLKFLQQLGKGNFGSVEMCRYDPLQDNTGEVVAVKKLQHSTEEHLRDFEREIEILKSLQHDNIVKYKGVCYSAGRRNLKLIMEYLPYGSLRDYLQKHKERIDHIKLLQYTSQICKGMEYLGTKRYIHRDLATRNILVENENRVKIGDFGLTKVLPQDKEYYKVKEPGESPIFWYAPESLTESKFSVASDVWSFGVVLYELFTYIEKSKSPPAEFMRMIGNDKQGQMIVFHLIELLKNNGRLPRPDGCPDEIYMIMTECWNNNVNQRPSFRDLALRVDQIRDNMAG
Experimental: (§2) A panel of four LanthaScreen JAK biochemical assays (JAK1, 2, 3 and Tyk2) were carried in a common kinase reaction buffer (50 mM HEPES, pH 7.5, 0.01% Brij-35, 10 mM MgCl2, and 1 mM EGTA). Recombinant GST-tagged JAK enzymes and a GFP-tagged STAT1 peptide substrate were obtained from Life Technologies.
(§3) Serially or discretely diluted compounds were pre-incubated with each of the four JAK enzymes and the substrate in white 384-well microplates (Corning) at ambient temperature for 1 h. ATP was subsequently added to initiate the kinase reactions in 10 μL total volume, with 1% DMSO. […] Kinase reactions were allowed to proceed for 1 hour at ambient temperature before a 10 μL preparation of EDTA (10 mM final concentration) and Tb-anti-pSTAT1 (pTyr701) antibody (Life Technologies, 2 nM final concentration) in TR-FRET dilution buffer (Life Technologies) was added. The plates were allowed to incubate at ambient temperature for 1 h before being read on the EnVision reader (Perkin Elmer).
(§4) For dose-response analysis, percent inhibition data were plotted vs. compound concentrations, and IC50 values were determined from a 4-parameter robust fit model with the Prism software (GraphPad Software). Results were expressed as pIC50 (negative logarithm of IC50) and subsequently converted to pKi (negative logarithm of dissociation constant, Ki) using the Cheng-Prusoff equation.

[3] = target: T3, Tyk2 (Homo sapiens, UniProt P29597); assay: Biochemical Tyk2 kinase assay (LanthaScreen); conditions: for Ki: read-out: Tyk 2 (pKi) (converted)
T3 construct: GST; purchased Life Technologies
T3 sequence (P29597 whole entry): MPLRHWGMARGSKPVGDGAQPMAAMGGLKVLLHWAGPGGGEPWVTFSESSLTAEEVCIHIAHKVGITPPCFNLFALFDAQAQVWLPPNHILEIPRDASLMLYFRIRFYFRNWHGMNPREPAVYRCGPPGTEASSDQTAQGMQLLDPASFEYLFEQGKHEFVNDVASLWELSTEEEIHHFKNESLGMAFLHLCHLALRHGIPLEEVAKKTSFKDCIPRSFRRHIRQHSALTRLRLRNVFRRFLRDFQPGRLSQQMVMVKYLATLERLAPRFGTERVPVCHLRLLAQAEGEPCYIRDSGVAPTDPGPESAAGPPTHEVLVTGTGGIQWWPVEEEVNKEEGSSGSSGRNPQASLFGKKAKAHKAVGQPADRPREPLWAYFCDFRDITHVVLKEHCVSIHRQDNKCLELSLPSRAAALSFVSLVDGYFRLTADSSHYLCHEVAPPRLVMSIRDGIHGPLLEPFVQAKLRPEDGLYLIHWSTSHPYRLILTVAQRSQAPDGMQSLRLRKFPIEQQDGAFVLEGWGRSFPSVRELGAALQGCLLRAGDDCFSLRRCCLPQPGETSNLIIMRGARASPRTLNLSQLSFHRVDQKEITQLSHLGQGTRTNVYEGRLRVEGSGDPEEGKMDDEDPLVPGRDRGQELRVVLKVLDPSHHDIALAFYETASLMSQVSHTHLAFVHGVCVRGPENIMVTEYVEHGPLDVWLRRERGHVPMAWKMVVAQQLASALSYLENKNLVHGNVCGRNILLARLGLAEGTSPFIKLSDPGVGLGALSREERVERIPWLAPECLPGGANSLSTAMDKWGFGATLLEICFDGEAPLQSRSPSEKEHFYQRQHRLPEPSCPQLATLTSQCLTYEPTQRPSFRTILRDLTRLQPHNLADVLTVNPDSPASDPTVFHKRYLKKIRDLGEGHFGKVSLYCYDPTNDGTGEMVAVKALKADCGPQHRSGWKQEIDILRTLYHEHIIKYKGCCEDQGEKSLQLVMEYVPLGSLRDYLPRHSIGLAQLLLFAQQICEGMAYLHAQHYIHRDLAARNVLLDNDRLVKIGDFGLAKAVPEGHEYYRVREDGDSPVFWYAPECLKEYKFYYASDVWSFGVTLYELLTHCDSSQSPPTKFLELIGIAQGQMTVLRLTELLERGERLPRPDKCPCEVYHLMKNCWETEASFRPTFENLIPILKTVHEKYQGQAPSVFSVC
Experimental: as §2
as §3, with “Elmer). Emission ratio signals (520 nm/495 nm) were recorded and utilized to calculate the percent inhibition values based on DMSO and background controls.” for “Elmer).”
as §4

[4] = system: IL-2 stimulated pSTAT5 in Tall-1 T cells; assay: Cellular JAK3 potency assay: inhibition of IL-2 stimulated pSTAT5 in Tall-1 T cells; type: cell-based, human; conditions: for IC50: Homo sapiens, read-out: Tall-1 (pIC50) (converted)
Procedure, shortened: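 In human Tall-1 T cells, IL-2 (300 ng/ml final, 30 min) drives STAT5 phosphorylation after a 1 h compound pretreatment. Lysates are assayed for pSTAT5 by AlphaLisa, and IC50 derived from signal versus concentration is expressed as pIC50.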

[5] = target: T4, JAK3 (Homo sapiens, UniProt P52333); assay: Biochemical JAK3 kinase assay (LanthaScreen); design: GST; purchased Life Technologies; conditions: for Ki: read-out: JAK 3 (pKi) (converted)
T4 sequence (P52333 1-1124): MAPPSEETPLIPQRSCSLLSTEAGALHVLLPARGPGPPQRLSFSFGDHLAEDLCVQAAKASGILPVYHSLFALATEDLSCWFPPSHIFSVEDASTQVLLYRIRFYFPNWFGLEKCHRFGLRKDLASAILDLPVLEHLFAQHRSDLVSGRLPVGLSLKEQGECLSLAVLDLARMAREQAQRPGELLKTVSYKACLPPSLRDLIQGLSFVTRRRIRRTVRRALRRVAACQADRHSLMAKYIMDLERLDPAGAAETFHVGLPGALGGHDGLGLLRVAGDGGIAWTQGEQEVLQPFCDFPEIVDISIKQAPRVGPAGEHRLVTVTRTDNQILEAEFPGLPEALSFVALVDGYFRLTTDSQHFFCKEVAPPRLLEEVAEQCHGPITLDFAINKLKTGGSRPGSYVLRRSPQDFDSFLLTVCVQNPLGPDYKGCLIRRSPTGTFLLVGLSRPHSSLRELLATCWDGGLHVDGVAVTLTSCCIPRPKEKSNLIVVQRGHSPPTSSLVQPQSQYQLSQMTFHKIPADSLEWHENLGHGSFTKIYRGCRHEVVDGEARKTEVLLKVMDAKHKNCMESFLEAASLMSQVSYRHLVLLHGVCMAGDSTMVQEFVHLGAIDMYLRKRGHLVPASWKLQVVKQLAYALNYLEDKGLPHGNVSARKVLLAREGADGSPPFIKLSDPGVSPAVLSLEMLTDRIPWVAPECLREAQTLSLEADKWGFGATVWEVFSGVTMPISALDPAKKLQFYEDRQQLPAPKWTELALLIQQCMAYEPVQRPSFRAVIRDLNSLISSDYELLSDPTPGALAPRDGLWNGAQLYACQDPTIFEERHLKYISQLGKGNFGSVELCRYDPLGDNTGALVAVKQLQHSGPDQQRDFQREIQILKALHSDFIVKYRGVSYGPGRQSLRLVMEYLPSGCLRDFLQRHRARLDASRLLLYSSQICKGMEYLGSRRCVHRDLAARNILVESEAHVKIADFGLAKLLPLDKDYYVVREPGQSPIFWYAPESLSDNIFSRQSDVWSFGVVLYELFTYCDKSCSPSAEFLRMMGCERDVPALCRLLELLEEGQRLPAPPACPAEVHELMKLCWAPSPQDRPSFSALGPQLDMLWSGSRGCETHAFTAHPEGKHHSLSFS
Procedure, shortened: as §1

[6] = TALL-1, IL-2 stimulated pSTAT5 in Tall-1 T cells
[7] = selectivity: difference of pKi JAK3 and pKi JAK1
[8] = IL-2 stimulated pSTAT5 in Tall-1 T cells
[9] = IL-2 stimulated pSTAT5, Tall-1 T cells
[10] = selectivity JAK3 over JAK1, difference of pKi
[11] = TALL-1, IL-2 stimulated pSTAT5, Tall-1 T cells

T1 sequence (P23458 whole entry): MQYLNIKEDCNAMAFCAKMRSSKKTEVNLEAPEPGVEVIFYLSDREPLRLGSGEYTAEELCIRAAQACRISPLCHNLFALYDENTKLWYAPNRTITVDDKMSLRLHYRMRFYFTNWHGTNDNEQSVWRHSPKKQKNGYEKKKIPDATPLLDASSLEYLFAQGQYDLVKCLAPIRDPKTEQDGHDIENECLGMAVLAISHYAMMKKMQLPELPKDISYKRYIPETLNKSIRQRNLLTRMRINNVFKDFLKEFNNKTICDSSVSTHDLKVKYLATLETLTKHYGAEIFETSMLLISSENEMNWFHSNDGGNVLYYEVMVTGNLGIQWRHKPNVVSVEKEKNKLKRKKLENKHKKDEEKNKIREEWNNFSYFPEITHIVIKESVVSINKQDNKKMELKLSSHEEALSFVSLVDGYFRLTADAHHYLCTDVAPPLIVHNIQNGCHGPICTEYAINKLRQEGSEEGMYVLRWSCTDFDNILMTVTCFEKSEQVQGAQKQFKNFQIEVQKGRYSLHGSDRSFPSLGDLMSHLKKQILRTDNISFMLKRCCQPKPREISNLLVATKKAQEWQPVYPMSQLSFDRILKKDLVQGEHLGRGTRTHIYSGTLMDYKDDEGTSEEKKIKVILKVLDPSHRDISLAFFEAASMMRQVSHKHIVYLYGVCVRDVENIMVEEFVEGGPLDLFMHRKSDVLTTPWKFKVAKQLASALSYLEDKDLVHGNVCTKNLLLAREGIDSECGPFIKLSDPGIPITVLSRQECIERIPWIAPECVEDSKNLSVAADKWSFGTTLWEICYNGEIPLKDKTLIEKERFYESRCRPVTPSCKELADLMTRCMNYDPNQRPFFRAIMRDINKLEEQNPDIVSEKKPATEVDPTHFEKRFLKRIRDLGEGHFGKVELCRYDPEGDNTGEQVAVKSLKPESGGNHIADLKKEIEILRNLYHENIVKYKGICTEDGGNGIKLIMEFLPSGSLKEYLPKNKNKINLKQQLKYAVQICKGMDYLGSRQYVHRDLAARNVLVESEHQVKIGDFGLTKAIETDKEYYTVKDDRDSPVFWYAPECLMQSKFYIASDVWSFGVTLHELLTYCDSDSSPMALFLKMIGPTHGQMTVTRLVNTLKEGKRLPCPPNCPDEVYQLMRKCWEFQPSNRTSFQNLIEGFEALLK

Row | SMILES | Ki [1] [nM] | Ki [2] [nM] | Ki [3] [nM] | IC50 [4, 6] [nM] | Ki [5] [nM] | JAK3 (pKi)-JAK1 (pKi) [5, 7] | JAK 1 (pKi) [1] | JAK 2 (pKi) [2] | Tyk 2 (pKi) [3] | Tall-1 (pIC50) [4, 8] | JAK 3 (pKi) [5] | Tall-1 (pIC50) [4, 9] | JAK3 (pKi)-JAK1 (pKi) [5, 10] | IC50 [4, 11] [nM]
1 | CN(C)C/C=C/C(=O)N1CC(C(C)(C)Oc2cc(-c3ccc(O)c(F)c3)cc3[nH]ncc23)C1 [Compound 3-27] | > 100 | > 100 | > 100 | 31.6 to 200 | < 0.1 | A (a value of 3 or above) |  |  |  |  |  |  |  | 
2 | CCC1(COc2nc(-c3ccc(O)c(F)c3)cc3[nH]ncc23)CN(C(=O)/C=C/CN(C)C)C1 [Compound 3-100] |  |  |  |  |  | A (a value of 3 or above) | E (a pKi value of 7 or below (Ki of 100 nM or above)) | E (a pKi value of 7 or below (Ki of 100 nM or above)) | E (a pKi value of 7 or below (Ki of 100 nM or above)) | A (a pIC50 value≥7.5 (IC50≤32 nM)) | B (a pKi value between 9 and 10 (Ki between 1 nM and 0.1 nM)) |  |  | 
3 | C=CC(=O)N1CC[C@H](COc2cc(-c3ccc(O)c(Cl)c3)cc3[nH]ncc23)C1 [Compound 2-3] |  |  |  |  |  | A (a value of 3 or above) | E (a pKi value of 7 or below (Ki of 100 nM or above)) | D (a pKi value between 7 and 8 (Ki between 100 nM and 10 nM)) | E (a pKi value of 7 or below (Ki of 100 nM or above)) | B (a pIC50 value between 6.7 (included) and 7.5 (IC50 between 200 nM and 32 nM)) | B (a pKi value between 9 and 10 (Ki between 1 nM and 0.1 nM)) |  |  | 
4 | C=CC(=O)N1C2CCC1CC(Oc1cc(-c3ccc(O)c(Cl)c3)cc3[nH]ncc13)C2 (stereo not drawn) [Compound 9-2] |  |  |  |  |  |  | E (a pKi value of 7 or below (Ki of 100 nM or above)) | E (a pKi value of 7 or below (Ki of 100 nM or above)) | E (a pKi value of 7 or below (Ki of 100 nM or above)) |  | B (a pKi value between 9 and 10 (Ki between 1 nM and 0.1 nM)) | A (a pIC50 value≥7.5 (IC50≤32 nM)) | A (a value of 3 or above) | 
5 | C=CC(=O)N1CCC(Oc2cc(-c3ccc(O)cc3)nc3[nH]ncc23)CC1C (stereo not drawn) [Compound 13-12] |  |  |  |  |  |  | E (a pKi value of 7 or below (Ki of 100 nM or above)) | E (a pKi value of 7 or below (Ki of 100 nM or above)) | E (a pKi value of 7 or below (Ki of 100 nM or above)) |  | B (a pKi value between 9 and 10 (Ki between 1 nM and 0.1 nM)) | B (a pIC50 value between 6.7 (included) and 7.5 (IC50 between 200 nM and 32 nM)) | A (a value of 3 or above) | 
6 | C=CC(=O)N1CCC(Sc2cc(-c3ccc(O)cc3)cc3[nH]ncc23)CC1 [Compound 12-4] | > 100 | > 100 | > 100 |  | 0.1 to 1 |  |  |  |  |  |  |  | A (a value of 3 or above) | 31.6 to 200
7 | C=CC(=O)N1CCC(Nc2cc(-c3ccc(O)cc3)cc3[nH]ncc23)CC1 [Compound 7-4] | 10 to 100 | 1 to 10 | > 100 |  | 0.1 to 1 |  |  |  |  |  |  |  | B (a value of 2.3 to 3) | < 31.6
8 | CN(C)C/C=C/C(=O)N1CC(CN(C)c2cc(-c3ccc(O)c(F)c3)cc3[nH]ncc23)C1 [Compound 4-6] |  |  |  |  |  | A (a value of 3 or above) | E (a pKi value of 7 or below (Ki of 100 nM or above)) | E (a pKi value of 7 or below (Ki of 100 nM or above)) | E (a pKi value of 7 or below (Ki of 100 nM or above)) | B (a pIC50 value between 6.7 (included) and 7.5 (IC50 between 200 nM and 32 nM)) | B (a pKi value between 9 and 10 (Ki between 1 nM and 0.1 nM)) |  |  | 
9 | C=CC(=O)N1CC[C@H](COc2nc(-c3ccc(O)c(F)c3)cc3[nH]ncc23)C1 [Compound 2-10] |  |  |  |  |  | A (a value of 3 or above) | E (a pKi value of 7 or below (Ki of 100 nM or above)) | D (a pKi value between 7 and 8 (Ki between 100 nM and 10 nM)) | E (a pKi value of 7 or below (Ki of 100 nM or above)) | A (a pIC50 value≥7.5 (IC50≤32 nM)) | B (a pKi value between 9 and 10 (Ki between 1 nM and 0.1 nM)) |  |  | 
10 | C[C@@H]1C[C@H](Oc2cc(-c3ccc(O)cc3)cc3[nH]ncc23)CCN1C(=O)/C=C/CN(C)C [Compound 12-28] | > 100 | 1 to 10 | > 100 |  | < 0.1 |  |  |  |  |  |  |  | A (a value of 3 or above) | 31.6 to 200
11 | CN(C)C/C=C/C(=O)N1CC(F)(COc2cc(-c3ccc(O)c(F)c3)cc3[nH]ncc23)C1 [Compound 3-40] | 0.1 to 1 | 10 to 100 | > 100 | < 31.6 | < 0.1 | A (a value of 3 or above) |  |  |  |  |  |  |  | 
12 | C=CC(=O)N1CC(C#N)(COc2nc(-c3ccc(O)cc3)cc3[nH]ncc23)C1 [Compound 3-103] | > 100 | 10 to 100 | > 100 | < 31.6 | < 0.1 | A (a value of 3 or above) |  |  |  |  |  |  |  | 
13 | C=CC(=O)N1CC[C@H](COc2cc(-c3ccc(O)c(F)c3)cc3[nH]ncc23)C1 [Compound 2-5] |  |  |  |  |  | A (a value of 3 or above) | E (a pKi value of 7 or below (Ki of 100 nM or above)) | D (a pKi value between 7 and 8 (Ki between 100 nM and 10 nM)) | E (a pKi value of 7 or below (Ki of 100 nM or above)) | B (a pIC50 value between 6.7 (included) and 7.5 (IC50 between 200 nM and 32 nM)) | B (a pKi value between 9 and 10 (Ki between 1 nM and 0.1 nM)) |  |  | 
